Measured values: patent US9862707B2, “TrkA kinase inhibitors, compositions and methods thereof” (Merck Sharp & Dohme Corp., priority 2014, dated 2018)

The compounds below were run against human TrkA receptor (Homo sapiens (Human), UniProt P04629) (assay: TrkA functional activity, DiscoverX PathHunter assay). Conditions: U2OS cells expressing human TrkA-PK, Shc1-EA and p75NTR; compound 1 h, then NGF at ~80% of maximal response for 3 h; luminescence.
Format: cell-based

Chain of human TrkA receptor (P04629 33-796): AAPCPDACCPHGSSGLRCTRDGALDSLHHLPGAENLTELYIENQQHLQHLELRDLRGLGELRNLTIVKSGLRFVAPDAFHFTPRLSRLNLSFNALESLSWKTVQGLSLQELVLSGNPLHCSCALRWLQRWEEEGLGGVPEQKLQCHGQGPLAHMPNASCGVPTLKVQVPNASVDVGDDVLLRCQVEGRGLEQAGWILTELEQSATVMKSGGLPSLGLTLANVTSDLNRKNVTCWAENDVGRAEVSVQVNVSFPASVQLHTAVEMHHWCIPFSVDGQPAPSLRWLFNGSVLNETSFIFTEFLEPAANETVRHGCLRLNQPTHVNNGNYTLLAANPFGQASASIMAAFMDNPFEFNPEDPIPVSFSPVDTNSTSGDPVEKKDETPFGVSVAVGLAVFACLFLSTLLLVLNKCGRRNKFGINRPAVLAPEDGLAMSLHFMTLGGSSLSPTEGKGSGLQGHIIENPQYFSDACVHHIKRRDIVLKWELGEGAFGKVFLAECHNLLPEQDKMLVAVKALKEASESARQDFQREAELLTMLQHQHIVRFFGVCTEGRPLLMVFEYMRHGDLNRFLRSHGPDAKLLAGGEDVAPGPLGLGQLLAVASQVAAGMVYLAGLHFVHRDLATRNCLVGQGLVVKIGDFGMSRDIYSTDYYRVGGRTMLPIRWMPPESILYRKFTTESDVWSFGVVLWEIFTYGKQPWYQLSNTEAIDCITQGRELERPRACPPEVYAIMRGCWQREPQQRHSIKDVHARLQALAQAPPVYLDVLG

IC50	SMILES
11 nM	O=C(CO)NCc1ccc2c(NC(=O)c3cc(-c4ncccn4)c(C(F)(F)F)cc3F)n(-c3ccccc3)nc2c1 [Compound 98, 2-Fluoro-N-(6-((2-hydroxyacetamido)methyl)-2-phenyl-2H-indazol-3-yl)-5-(pyrimidin-2-yl)-4-(trifluoromethyl)benzamide]
0.88 nM	Cn1ccc(-c2cc(C(=O)Nc3c4nccc(CN5C(=O)CNC5=O)c4nn3-c3ccccc3)c(F)cc2C(F)(F)F)n1 [Compound 99, N-(7-((2,5-dioxoimidazolidin-1-yl)methyl)-2-phenyl-2H-pyrazolo[4,3-b]pyridin-3-yl)-2-fluoro-5-(1-methyl-1H-pyrazol-3-yl)-4-(trifluoromethyl)benzamide]
2.7 nM	Cn1ccc(-c2cc(C(=O)Nc3c4ccc([C@@H](N)C(F)(F)F)cc4nn3-c3ccccc3)ccc2C(F)(F)F)n1 [Compound 100]
1.8 nM	Cn1ccc(-c2cc(C(=O)Nc3c4ccc([C@H](N)C(F)(F)F)cc4nn3-c3ccccc3)ccc2C(F)(F)F)n1 [Compound 101, (S)—N-(6-(1-Amino-2,2,2-trifluoroethyl)-2-phenyl-2H-indazol-3-yl)-3-(1-methyl-1H-pyrazol-3-yl)-4-(trifluoromethyl)benzamide]
